Laboratory results: patent US20230293526A1, “METHOD FOR TREATING CANCER WITH A REVERSE TRANSCRIPTASE INHIBITOR” (PrimeFour Therapeutics, Inc., priority 2020, published 2023)

Tests used:
[1] = tested on: human LINE-1; experiment: Human LINE-1 (L1) retrotransposition dual-luciferase reporter assay in HeLa cells; format: cell-based; conditions: Homo sapiens, HeLa, 72 h, read-out: Human LINE-1 IC50 (Human L1 activity inhibition)
In short: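 Compound dilution series (final DMSO 0.2%) added right after transfecting HeLa cells with the pYX017 L1 dual-luciferase reporter; 72 h culture at 37 °C, 5% CO2, triplicates. IC50 fitted by non-linear logistic regression to firefly-to-Renilla luminescence ratio (×10,000).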

[2] = tested on: cancer cell lines; experiment: Cancer cell proliferation activity of representative nucleosides, CellTiterGlo 72 h (Example 7, Tables 8 and 9); format: cell-based; conditions: 72 h
In short: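 Percent viability was set against 0.1% DMSO (100%) and 10 μM staurosporine (0%), with signal from CellTiterGlo luminescence. Dose-response treatment began one day after seeding and lasted 72 h at 37° C under 5% or 10% CO2, with 0.1% final DMSO.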

C#C[C@]1(CO)O[C@@H](n2cnc3c(=O)[nH]c(N)nc32)C[C@@H]1O [compound 13]
IC50 [1]: 0.51 nM
IC50 ([2]; 72 h, 5637, bladder): 2270 nM
IC50 ([2]; CLS439, bladder): > 50000 nM
IC50 ([2]; HS729, muscle): 1510 nM
IC50 ([2]; J82, bladder): 1970 nM
IC50 ([2]; JAR, placenta): > 50000 nM
IC50 ([2]; MT3, breast): 370 nM
IC50 ([2]; PC3, prostate): 1800 nM
IC50 ([2]; RD, muscle): > 50000 nM
IC50 ([2]; T24, bladder): 4540 nM
IC50 ([2]; Homo sapiens, 22Rv1, 72 h, 22RV1, prostate): 2220 nM
IC50 ([2]; Homo sapiens, 786-0, 72 h, 786O, kidney): > 50000 nM
IC50 ([2]; Homo sapiens, A204, 72 h, A204, muscle): 270 nM
IC50 ([2]; Homo sapiens, A549, 72 h, A549, lung): 2060 nM
IC50 ([2]; Homo sapiens, A673, 72 h, A673, bone): > 50000 nM
IC50 ([2]; Homo sapiens, A2780, 72 h, A2780, ovary): 15600 nM
IC50 ([2]; Homo sapiens, A-375, 72 h, A375, skin): 2350 nM
IC50 ([2]; Homo sapiens, A-431, 72 h, A431, skin): 3030 nM
IC50 ([2]; Homo sapiens, ACHN, kidney): 1440 nM
IC50 ([2]; Homo sapiens, ASPC1, 72 h, ASPC1, pancreas): 1330 nM
IC50 ([2]; Homo sapiens, BT-20, 72 h, BT20, breast): > 50000 nM
IC50 ([2]; Homo sapiens, BXPC-3, 72 h, BXPC3, pancreas): 1430 nM
IC50 ([2]; Homo sapiens, C-33-A, C33A, endometrial): 2030 nM
IC50 ([2]; Homo sapiens, CAKI-1, 72 h, CAKI1, kidney): 1840 nM
IC50 ([2]; Homo sapiens, COLO 205, 72 h, COLO205, colon): 1470 nM
IC50 ([2]; Homo sapiens, COLO-678, 72 h, COLO678, colon): 4090 nM
IC50 ([2]; Homo sapiens, Ca-Ski, CASKI, endometrial): > 50000 nM
IC50 ([2]; Homo sapiens, Caco-2, 72 h, CACO2, colon): > 50000 nM
IC50 ([2]; Homo sapiens, Calu-6, 72 h, CALU6, lung): > 50000 nM
IC50 ([2]; Homo sapiens, DLD-1, 72 h, DLD1, colon): > 50000 nM
IC50 ([2]; Homo sapiens, DU-145, 72 h, DU145, prostate): 4070 nM
IC50 ([2]; Homo sapiens, EFO-21, 72 h, EFO21, ovary): 4000 nM
IC50 ([2]; Homo sapiens, EJ-28, 72 h, EJ28, bladder): 6820 nM
IC50 ([2]; Homo sapiens, Granta-519, 72 h, GRANTA-519, hematological): 2440 nM
IC50 ([2]; Homo sapiens, HCT-15, 72 h, HCT15, colon): > 50000 nM
IC50 ([2]; Homo sapiens, HCT-116, 72 h, HCT116, colon): 3370 nM
IC50 ([2]; Homo sapiens, HEK293, 72 h, HEK293, kidney): 7690 nM
IC50 ([2]; Homo sapiens, HL-60, 72 h, HL-60, hematological): 2060 nM
IC50 ([2]; Homo sapiens, HT-29, 72 h, HT29, colon): 2280 nM
IC50 ([2]; Homo sapiens, HT-1080, 72 h, HT1080, connective tissue): 3880 nM
IC50 ([2]; Homo sapiens, HeLa, endometrial): 1200 nM
IC50 ([2]; Homo sapiens, HepG2, 72 h, HEPG2, liver): 1240 nM
IC50 ([2]; Homo sapiens, Hs-578T, HS578T, breast): > 50000 nM
IC50 ([2]; Homo sapiens, IGROV-1, 72 h, IGROV1, ovary): 2760 nM
IC50 ([2]; Homo sapiens, IMR-90, 72 h, IMR90, lung): > 50000 nM
IC50 ([2]; Homo sapiens, JEG-3, 72 h, JEG3, placenta): > 50000 nM
IC50 ([2]; Homo sapiens, JIMT-1, 72 h, JIMT1, breast): 2040 nM
IC50 ([2]; Homo sapiens, K562, 72 h, K-562, hematological): > 50000 nM
IC50 ([2]; Homo sapiens, Kasumi 1, 72 h, KASUMI-1, hematological): 100 nM
IC50 ([2]; Homo sapiens, L-363, 72 h, L-363, hematological): > 50000 nM
IC50 ([2]; Homo sapiens, LoVo, colon): 3100 nM
IC50 ([2]; Homo sapiens, MCF7, 72 h, MCF7, breast): 5950 nM
IC50 ([2]; Homo sapiens, MDA-MB-231, 72 h, MDAMB231, breast): 1320 nM
IC50 ([2]; Homo sapiens, MDA-MB-435, 72 h, MDAMB435, skin): > 50000 nM
IC50 ([2]; Homo sapiens, MDA-MB-436, 72 h, MDAMB436, breast): 1500 nM
IC50 ([2]; Homo sapiens, MDA-MB-468, 72 h, MDAMB468, breast): > 50000 nM
IC50 ([2]; Homo sapiens, MG-63, 72 h, MG63, bone): > 50000 nM
IC50 ([2]; Homo sapiens, MHH-ES-1, 72 h, MHHES1, bone): > 50000 nM
IC50 ([2]; Homo sapiens, MIA PaCa-2, 72 h, MIAPACA2, pancreas): 6240 nM
IC50 ([2]; Homo sapiens, MINO, hematological): 460 nM
IC50 ([2]; Homo sapiens, MV4-11, 72 h, MV4-11, hematological): 1020 nM
IC50 ([2]; Homo sapiens, NCI-H23, 72 h, NCI-H23, lung): 4670 nM
IC50 ([2]; Homo sapiens, NCI-H82, 72 h, NCIH82, lung): 15400 nM
IC50 ([2]; Homo sapiens, NCI-H292, 72 h, NCIH292, lung): 1070 nM
IC50 ([2]; Homo sapiens, NCI-H460, 72 h, NCIH460, ung): 1410 nM
IC50 ([2]; Homo sapiens, OVCAR-3, 72 h, OVCAR3, ovary): 760 nM
IC50 ([2]; Homo sapiens, OVCAR-4, 72 h, OVCAR4, ovary): > 50000 nM
IC50 ([2]; Homo sapiens, PANC-1, 72 h, PANC1, pancreas): > 50000 nM
IC50 ([2]; Homo sapiens, PLC-PRF-5, 72 h, PLCPRF5, liver): 2100 nM
IC50 ([2]; Homo sapiens, Panc1005, 72 h, PANC1005, pancreas): 3080 nM
IC50 ([2]; Homo sapiens, Ramos, hematological): 1170 nM
IC50 ([2]; Homo sapiens, SAOS-2, 72 h, SAOS2, bone): 1660 nM
IC50 ([2]; Homo sapiens, SF-268, 72 h, SF268, brain): > 50000 nM
IC50 ([2]; Homo sapiens, SF-295, 72 h, SF295, brain): 7160 nM
IC50 ([2]; Homo sapiens, SK-BR-3, 72 h, SKBR3, breast): 4610 nM
IC50 ([2]; Homo sapiens, SK-HEP1, 72 h, SKHEP1, liver): 2290 nM
IC50 ([2]; Homo sapiens, SK-LMS-1, 72 h, SKLMS1, uterus): 2380 nM
IC50 ([2]; Homo sapiens, SK-MEL-5, 72 h, SKMEL5, skin): > 50000 nM
IC50 ([2]; Homo sapiens, SK-MEL-28, 72 h, SKMEL28, skin): 6060 nM
IC50 ([2]; Homo sapiens, SK-N-AS, SKNAS, brain): 2440 nM
IC50 ([2]; Homo sapiens, SK-N-SH, SKNSH, brain): 2290 nM
IC50 ([2]; Homo sapiens, SK-OV-3, 72 h, SKOV3, ovary): 2020 nM
IC50 ([2]; Homo sapiens, SNB-75, 72 h, SNB75, brain): 12800 nM
IC50 ([2]; Homo sapiens, SU-DHL10, 72 h, SU-DHL-10, hematological): 5600 nM
IC50 ([2]; Homo sapiens, SU-DHL-6, 72 h, SU-DHL-6, hematological): 4190 nM
IC50 ([2]; Homo sapiens, SW-620, 72 h, SW620, colon): 1820 nM
IC50 ([2]; Homo sapiens, TE-671, 72 h, TE671, muscle): > 50000 nM
IC50 ([2]; Homo sapiens, THP-1, 72 h, THP-1, hematological): 1970 nM
IC50 ([2]; Homo sapiens, U2OS, bone): > 50000 nM
IC50 ([2]; Homo sapiens, U-87 MG, U87MG, brain): 2380 nM
IC50 ([2]; Homo sapiens, UMUC3, 72 h, UMUC3, bladder): > 50000 nM
IC50 ([2]; Homo sapiens, UO-31, 72 h, UO31, kidney): 3290 nM
IC50 ([2]; Homo sapiens, WSU-NHL, hematological): 2770 nM
IC50 ([2]; NCI-H358M, NCIH358M, lung): 330 nM
IC50 ([2]; PBMC, hematological): 190 nM
IC50 ([2]; RD-ES, RDES, bone): 2480 nM
